The values that follow come from patent US9309298B2, “Anti-bacterial polypeptides and pathogen specific synthetic antibodies” (priority 2011, dated 2016).

The subject of data set [1] is P. aeruginosa. It counts as cell-based.
The subject of data set [2] is S. mutans. It counts as cell-based.
The test system of data set [3] is Staphylococcus aureus. The data set is described as follows: Mutant library in vitro inhibition activity, S. aureus. It counts as cell-based. The conditions noted are these: relative growth after 18 hours of co-incubation. As for the experimental part:
(§1) A library of 340 mutants of original lytic peptide (killing domain in synbody) was synthesized with single amino acid substitutions. Mutants along with original peptide as positive control were tested in vitro for inhibition activity against S. aureus and Pseudomonas aeruginosa. […] Ratio reflect the improvement in activity as “Mutant[Relative growth]/Orignal[Relative growth].

In data set [4] the test system is S. aureus. Nature of the data set: Solution inhibition assay, S. aureus. The following applies: negative control synbody. It counts as cell-based. How it is done:
The advantage of the synbody “DR-RW” over the single peptides can be noticed in the range 10-25 uM.

Data set [5] concerns human cells. The data set is classed as cell-based. An excerpt:
FIG. 2. Graph of cytoxicity data of a composition of the invention in human tissue culture studies.
(§2) GAL80 synbody was used as a negative control with no activity against S. aureus. […] Synbody was abbreviated as “SB”.

Data set [6] relates to B. subtilis. The data set is classed as cell-based.
Data set [7] in a line: In vivo characterization: immune response and acute toxicity in mice. Also noted: species or system CD1 mice.
Excerpt: FIG. 3. Graph of immune response cytoxicity data of a composition of the invention in CD1 mice.
as §2

The subject of data set [8] is S. aureus. It counts as cell-based.
In data set [9] the test system is Pseudomonas aeruginosa. Nature of the data set: Mutant library in vitro inhibition activity, Pseudomonas aeruginosa. It counts as cell-based. The conditions noted are these: relative growth after 18 hours of co-incubation. How it is done: as §1

Bridge positions count the residues as written; N and C are the ends. Square brackets hold non-standard residues; d marks the D form. Ends that are not written are not given here. I, II: the chains in the order shown. * marks the point of attachment. StBu = CC(C)(C)S* Some results are limits rather than exact numbers.

Consider DRIFHKMQHKPYKIKKRGSC, for which the “Avg MIC ± SD, PA” value in data set [1] was above 100 µM. In addition, the “Avg MIC ± SD, SM” value in [2] was above 100 µM.

Consider FWRRHKHFKRPHRKHKR [Mut 14], for which, in [3], the “ratio, Mutant[Relative growth]/Orignal[Relative growth]” value was 1.653.

Consider “GAL80 synbody: synbody used as a negative control with no activity against S. aureus (peptide 1 GTEKGTSGWLKTGSC; peptide 2 EGEWTEGKLSLRGSC)”, for which the “Activity against S. aureus” value in data set [4] is listed as “no activity”.

With “I: DRIFHKMQHKPYKIKKRGSGGGKC(StBu)-NH2 / II: RWRRHKHFKRPHRKHKRGSG (amide I:23-II:C) [Synbody]”, the Cytotoxic activity entry in data set [5] is on record as “no cytotoxic activity”. In [1], the “Avg MIC ± SD, PA” value worked out at 22 ± 1.8 µM. For the same substance, the “Avg MIC ± SD, BS” value in data set [6] turned out to be 14 ± 1.1 µM. Also, the “Avg MIC ± SD, SM” value in data set [2] was above 100 µM. Further, the Acute toxicity result in [7] (500 ug dose) is reported as “no immune response or acute toxicity”. The Immune response entry in data set [7] (500 ug dose, FIG. 3) is on record as “no immune response”. Besides, the “Level of IgG, PBS versus synbody injected mice” value in [7] (FIG. 3) is listed as “no difference detected”. In addition, the “Avg MIC ± SD, SA” value in data set [8] amounted to 14 ± 0.8 µM.

On to LWRRHKHFKRPHRKHKR [Mut 11], for which, in data set [3], the “ratio, Mutant[Relative growth]/Orignal[Relative growth]” value worked out at 1.58.

Consider PWRRHKHFKRPHRKHKR [Mut 15], for which the “ratio, Mutant[Relative growth]/Orignal[Relative growth]” value in [3] is reported as 1.658.

On to RLRRHKHFKRPHRKHKR [Mut 31], for which the “ratio, Mutant[Relative growth]/Orignal[Relative growth]” value in data set [3] was 1.633.

For RRRRHKHFKRPHRKHKR [Mut 22], the “ratio, Mutant[Relative growth]/Orignal[Relative growth]” value in data set [3] worked out at 6.1; in data set [9] it was 2.073.

In the case of RWRFHKHFKRPHRKHKR [Mut 74], the “ratio, Mutant[Relative growth]/Orignal[Relative growth]” value in [9] was found to be 1.017.

For the substance RWRRAKHFKRPHRKHKR [Mut 81], the “ratio, Mutant[Relative growth]/Orignal[Relative growth]” value in data set [3] came to 1.525.

For RWRRFKHFKRPHRKHKR [Mut 94], the “ratio, Mutant[Relative growth]/Orignal[Relative growth]” value in [9] was 1.211.

With RWRRHFHFKRPHRKHKR [Mut 114], the “ratio, Mutant[Relative growth]/Orignal[Relative growth]” value in data set [9] came to 10.95.

As to RWRRHGHFKRPHRKHKR [Mut 108], in data set [9], the “ratio, Mutant[Relative growth]/Orignal[Relative growth]” value was 1.191.

In the case of RWRRHHHFKRPHRKHKR [Mut 109], the “ratio, Mutant[Relative growth]/Orignal[Relative growth]” value in data set [9] is given as 1.395.

For the substance RWRRHIHFKRPHRKHKR [Mut 110], the “ratio, Mutant[Relative growth]/Orignal[Relative growth]” value in data set [9] was determined as 4.387.

In the case of RWRRHKAFKRPHRKHKR [Mut 121], the “ratio, Mutant[Relative growth]/Orignal[Relative growth]” value in data set [9] is reported as 2.297.

In the case of RWRRHKHFKRDHRKHKR [Mut 204], in data set [9], the “ratio, Mutant[Relative growth]/Orignal[Relative growth]” value worked out at 2.107.

With RWRRHKHFKRFHRKHKR [Mut 214], in data set [9], the “ratio, Mutant[Relative growth]/Orignal[Relative growth]” value is 1.134.

As to RWRRHKHFKRMHRKHKR [Mut 213], the “ratio, Mutant[Relative growth]/Orignal[Relative growth]” value in data set [9] is recorded as 1.185.

In the case of RWRRHKHFKRPHRKHFR [Mut 314], in data set [3], the “ratio, Mutant[Relative growth]/Orignal[Relative growth]” value was 1.497.

Regarding RWRRHKHFKRPHRKHKF [Mut 334], the “ratio, Mutant[Relative growth]/Orignal[Relative growth]” value in data set [3] came to 2.37.

On to RWRRHKHFKRPHRKHKK [Mut 332], for which the “ratio, Mutant[Relative growth]/Orignal[Relative growth]” value in data set [3] is on record as 2.438.

With RWRRHKHFKRPHRKHKRGSC, in data set [1], the “Avg MIC ± SD, PA” value turned out to be 27 ± 2.3 µM. Besides, the “Avg MIC ± SD, BS” value in data set [6] amounted to 20 ± 0.3 µM. The “Avg MIC ± SD, SM” value in data set [2] was above 100 µM. The “Avg MIC ± SD, SA” value in data set [8] was determined as 28 ± 1.5 µM.

For RWRRHKHFKRPHRKTKR [Mut 297], the “ratio, Mutant[Relative growth]/Orignal[Relative growth]” value in [3] is given as 2.339.

With RWRRHKHFKRPHRKVKR [Mut 300], the “ratio, Mutant[Relative growth]/Orignal[Relative growth]” value in data set [3] amounted to 1.453.

Regarding RWRRHKHFKRPYRKHKR [Mut 239], in data set [3], the “ratio, Mutant[Relative growth]/Orignal[Relative growth]” value was 2.12.

Take RWRRHKHFKRRHRKHKR [Mut 202]: in data set [9], the “ratio, Mutant[Relative growth]/Orignal[Relative growth]” value came to 1.3565.

Take RWRRHKHFRRPHRKHKR [Mut 162]: the “ratio, Mutant[Relative growth]/Orignal[Relative growth]” value in data set [3] was found to be 2.125.

As for RWRRHKHKKRPHRKHKR [Mut 152], in data set [3], the “ratio, Mutant[Relative growth]/Orignal[Relative growth]” value is 2.049.

RWRRHKHLKRPHRKHKR [Mut 151]: in [3], the “ratio, Mutant[Relative growth]/Orignal[Relative growth]” value is given as 1.312.

Turning to RWRRHKHMKRPHRKHKR [Mut 153], the “ratio, Mutant[Relative growth]/Orignal[Relative growth]” value in [3] amounted to 2.293.

With RWRRHKHPKRPHRKHKR [Mut 155], in [3], the “ratio, Mutant[Relative growth]/Orignal[Relative growth]” value is 2.359.

On to RWRRHKRFKRPHRKHKR [Mut 122], for which the “ratio, Mutant[Relative growth]/Orignal[Relative growth]” value in data set [3] was found to be 17.45; in data set [9], 3.121.

Take RWRRHKVFKRPHRKHKR [Mut 140]: the “ratio, Mutant[Relative growth]/Orignal[Relative growth]” value in [3] is 1.658.

Take RWRRHKWFKRPHRKHKR [Mut 138]: the “ratio, Mutant[Relative growth]/Orignal[Relative growth]” value in [9] was found to be 1.315.

As for RWRRHKYFKRPHRKHKR [Mut 139], the “ratio, Mutant[Relative growth]/Orignal[Relative growth]” value came out at 2.136 in data set [3] and 1.164 in data set [9].

For “RWRRHKd-KFKRPHRKHKR (RWRRHK[dK]FKRPHRKHKR) [Mut 125]”, the “ratio, Mutant[Relative growth]/Orignal[Relative growth]” value in data set [3] is 1.593.

Regarding RWRRHLHFKRPHRKHKR [Mut 111], the “ratio, Mutant[Relative growth]/Orignal[Relative growth]” value in data set [9] worked out at 1.71.

As for RWRRHRHFKRPHRKHKR [Mut 102], in [9], the “ratio, Mutant[Relative growth]/Orignal[Relative growth]” value worked out at 1.077.

Regarding RWRRHVHFKRPHRKHKR [Mut 120], the “ratio, Mutant[Relative growth]/Orignal[Relative growth]” value in [9] stood at 3.684.

RWRRIKHFKRPHRKHKR [Mut 90]: in [3], the “ratio, Mutant[Relative growth]/Orignal[Relative growth]” value is reported as 1.747.

As for RWRRMKHFKRPHRKHKR [Mut 93], in [9], the “ratio, Mutant[Relative growth]/Orignal[Relative growth]” value was 1.035.

Consider RWRRNKHFKRPHRKHKR [Mut 83], for which the “ratio, Mutant[Relative growth]/Orignal[Relative growth]” value in [3] is listed as 13.15.

As for RWRRPKHFKRPHRKHKR [Mut 95], in data set [3], the “ratio, Mutant[Relative growth]/Orignal[Relative growth]” value is 9.077.

For the substance RWRRWKHFKRPHRKHKR [Mut 98], the “ratio, Mutant[Relative growth]/Orignal[Relative growth]” value in data set [9] stood at 1.183.

Consider “d-KWRRHKHFKRPHRKHKR ([dK]WRRHKHFKRPHRKHKR; not fully specified (some residues)) [Mut 5]”, for which the “ratio, Mutant[Relative growth]/Orignal[Relative growth]” value in data set [3] is recorded as 1.308.
